Data as given in US12552773B2, “Compound for specifically enhancing spatial coupling degree of TRPV4-KCa2.3 complex and use thereof” (Jiangnan University, priority 2020, dated 2026).
Each block holds one compound with its values, some of them ahead of it.

How the values were obtained:
TRPV4-KCa2.3 complex = target: T1, TRPV4-KCa2.3 complex (Mus musculus, UniProt P58391+Q9EPK8); assay: In vitro coupling activity test (FRET, immunostained endothelial cells); assay type: cell-based, mice; conditions: for Fret efficiency value (average value): endothelial cells, 10 μmol/L, 24 hours, higher value = higher degree of coupling; for coupling between the TRPV4 and the KCa2.3: high-salt state, cells incubated 24 hours, compared with JNC-440
T1 construct: endogenous in cells
T1 sequence (Q9EPK8 whole entry): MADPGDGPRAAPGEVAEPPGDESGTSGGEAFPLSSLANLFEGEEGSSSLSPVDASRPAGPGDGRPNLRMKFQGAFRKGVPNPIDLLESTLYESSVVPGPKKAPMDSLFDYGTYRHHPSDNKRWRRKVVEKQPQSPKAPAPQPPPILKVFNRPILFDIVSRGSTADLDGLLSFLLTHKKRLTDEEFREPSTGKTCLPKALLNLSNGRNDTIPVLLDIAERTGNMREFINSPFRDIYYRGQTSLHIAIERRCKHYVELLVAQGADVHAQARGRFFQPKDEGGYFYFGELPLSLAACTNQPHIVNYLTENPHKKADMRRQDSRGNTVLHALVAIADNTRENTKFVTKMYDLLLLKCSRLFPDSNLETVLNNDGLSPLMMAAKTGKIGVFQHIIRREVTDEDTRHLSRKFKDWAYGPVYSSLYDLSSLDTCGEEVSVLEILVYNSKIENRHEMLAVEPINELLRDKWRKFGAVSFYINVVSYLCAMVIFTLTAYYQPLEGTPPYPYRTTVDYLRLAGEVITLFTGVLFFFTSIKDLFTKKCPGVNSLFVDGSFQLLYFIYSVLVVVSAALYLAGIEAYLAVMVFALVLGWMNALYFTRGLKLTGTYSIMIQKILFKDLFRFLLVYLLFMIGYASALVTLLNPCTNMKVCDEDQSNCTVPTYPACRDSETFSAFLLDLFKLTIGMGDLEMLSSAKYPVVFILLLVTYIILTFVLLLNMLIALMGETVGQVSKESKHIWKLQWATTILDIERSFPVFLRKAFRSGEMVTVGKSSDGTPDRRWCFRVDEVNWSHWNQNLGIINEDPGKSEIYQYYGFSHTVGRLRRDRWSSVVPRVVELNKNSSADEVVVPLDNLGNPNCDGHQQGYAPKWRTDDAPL
T1 sequence (P58391 whole entry): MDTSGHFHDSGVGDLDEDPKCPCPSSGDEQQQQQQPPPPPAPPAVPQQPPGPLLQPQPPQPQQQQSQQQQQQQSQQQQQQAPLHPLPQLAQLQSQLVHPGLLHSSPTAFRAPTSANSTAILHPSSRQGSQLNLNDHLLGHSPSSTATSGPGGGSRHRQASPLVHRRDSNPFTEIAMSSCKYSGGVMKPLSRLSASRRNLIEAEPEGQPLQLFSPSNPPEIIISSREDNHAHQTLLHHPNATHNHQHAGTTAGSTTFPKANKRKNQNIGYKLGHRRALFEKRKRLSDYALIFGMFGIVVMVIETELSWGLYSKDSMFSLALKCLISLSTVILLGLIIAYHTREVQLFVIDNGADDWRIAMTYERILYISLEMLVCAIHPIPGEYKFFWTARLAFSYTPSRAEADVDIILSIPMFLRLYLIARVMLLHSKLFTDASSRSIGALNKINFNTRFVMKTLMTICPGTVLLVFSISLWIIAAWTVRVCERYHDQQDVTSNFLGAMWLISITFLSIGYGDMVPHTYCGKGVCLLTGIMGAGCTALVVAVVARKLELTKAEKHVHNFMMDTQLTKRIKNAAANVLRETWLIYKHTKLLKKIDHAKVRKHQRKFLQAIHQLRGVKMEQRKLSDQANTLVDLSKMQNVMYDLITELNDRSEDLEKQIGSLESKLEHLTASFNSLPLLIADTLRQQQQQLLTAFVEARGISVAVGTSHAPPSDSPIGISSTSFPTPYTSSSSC
Experimental: Endothelial cells were cultured for 3-5 days, separately incubated with the compounds in Examples 1, 2, 3, 4, 5 and 6 with a concentration of 10 μmol/L for 24 hours, fixed with 4% paraformaldehyde for 30 minutes, permeabilized with PBS containing 0.2% Triton X-100 for 10 minutes and blocked with PBS containing 5% BSA for 1 hour. Then, the cells were sequentially stained with TRPV4-550 as a primary antibody, KCa2.3 as a coupled secondary antibody (Life Technologies) and DAPI (Vector Laboratories, Burlingame, CA, USA). A laser confocal microscope was used for photographing, and a Fret value was calculated.
A higher value indicated a higher degree of coupling between the two proteins.
With reference to FIG. 3, the compound obtained in Example 1 was abbreviated as compound 365; the compound obtained in Example 2 was abbreviated as compound 366; the compound obtained in Example 3 was abbreviated as compound 491; the compound obtained in Example 4 was abbreviated as compound 437; the compound obtained in Example 5 was abbreviated as compound 455; and the compound obtained in Example 6 was abbreviated as compound 469. HS referred to hypertensive mice induced by a high-salt diet, and WT referred to normal wild-type mice.

[1] = tested on: Mesenteric primary endothelial cells; assay: Determination of intracellular K+ (PBFI fluorescence ratio); assay type: cell-based; conditions: high-salt state, 10 μmol/L, 24 hours, versus no drug
Experimental: Mesenteric primary endothelial cells were cultured for 3-5 days and separately incubated with the compounds in Examples 4, 5 and 6 with a concentration of 10 μmol/L for 24 hours. A culture medium was removed. The cells and NPSS containing PBFI were incubated in an incubator at a ratio of 1:200 at 37° C. in a dark environment.
An Olympus fluorescence imaging system was used for measuring fluorescence with dual excitation at 340 nm and 380 nm. Changes of [K^+] were calculated as changes of a PBFI ratio.

[2] = tested on: hypertensive mice induced by a high-salt diet; assay: Effects on blood pressure of hypertensive mice in vivo (tail-cuff); conditions: intragastric, 30 mg/kg; for Mean arterial pressure change value: maximum drop of the blood pressure
Experimental: The blood pressure of mice was determined by using an IITC non-invasive sphygmomanometer and a tail-cuff method. At first, the mice were trained every day for at least a week with half an hour each time. During each test, a systolic blood pressure value, a diastolic blood pressure value, a mean arterial pressure value and a heart rate could be obtained. After adaption, the mice were administered intragastrically with the compounds in Examples 4 and 5 with a dosage of 30 mg/kg, and then the blood pressure of the hypertensive mice was measured within a regular time. According to results, it was shown that after the compound in Example 4 was used, the blood pressure was reduced for only 1.5 h; and after the compound in Example 5 was used, the blood pressure could be reduced for 8 h.
(§1) According to a line chart in FIG. 4, the abscissa referred to time with h as the unit; and the ordinate referred to systolic blood pressure (SBP), mean arterial pressure (MAP) and diastolic blood pressure (DBP) with mmHg as the unit. […] According to a histogram, the ordinate referred to changes of the mean arterial pressure with mmHg as the unit. […] HS referred to the hypertensive mice induced by a high-salt diet (model mice used in in vivo experiments in this example). WT referred to normal wild-type mice. A control group Ctrl referred to model mice administered intragastrically with normal saline rather than the compounds involved in this application.
as §1, with “5,” for “4,”

[3] = In vitro metabolism in liver microsomes, human; assay type: in vitro ADME; conditions: for In vivo inherent clearance rate: from human liver microsomes; for half-life at 0.193 µM: human, liver microsomes, pH 7.4, human liver microsomes, read-out: Half-life obtained after incubation in liver microsomes of human (converted); for microsomal CLint at 0.193 µM: pH 7.4, read-out: Inherent clearance rate in liver microsomes
Experimental: (§2) An in vitro metabolic incubation system with a total volume of 207 μL and an organic solvent less than 1% included 188 μL of a 0.1 mol/L PBS buffer (pH 7.4) and 12 μL of an NADPH generation system (prepared by mixing 10 μL of a solution A and 2 μL of a solution B on an ice bath before use). 2 μL of the compounds in Examples 4 and 5 with a concentration of 20 μm/L were added into the incubation system on an ice bath for pre-incubation in a water bath at 37° C. for 5 minutes. Then, 5 μL of liver microsomal enzymes of different species were added on an ice bath for uniform mixing and incubation in a water bath at 37° C. 400 μl of glacial acetonitrile (containing 50 ng/ml of an internal standard (caffeine)) was separately added at 0 minute, 10 minutes, 30 minutes, 60 minutes, 90 minutes, 120 minutes, 180 minutes, 360 minutes and 480 minutes to stop a reaction, and a parallel experiment was carried out 3 times. A rotation speed was 13,000 rpm/15 min. A supernatant was taken and detected by using an ultra-high performance liquid chromatography-quadrupole time-of-flight mass spectrometer.

[4] = In vitro metabolism in liver microsomes, mouse; assay type: in vitro ADME; conditions: for In vivo inherent clearance rate: from mouse liver microsomes; for half-life at 0.193 µM: mouse, liver microsomes, pH 7.4, mouse liver microsomes; for microsomal CLint at 0.193 µM: pH 7.4, read-out: Inherent clearance rate in liver microsomes
Experimental: as §2

[5] = In vitro metabolism in liver microsomes of different species (overall statement); assay type: in vitro ADME; conditions: for metabolism differences between species: liver microsomes of different species; for half-life at 0.193 µM: mouse, rat, human, dog (Example 4), human (Example 5), liver microsomes, pH 7.4, liver microsomes, overall over the species
Experimental: as §2

[6] = In vitro metabolism in liver microsomes, rat; assay type: in vitro ADME
Experimental: as §2

[7] = In vitro metabolism in liver microsomes, dog; assay type: in vitro ADME
Experimental: as §2

Fret efficiency value (average value) (TRPV4-KCa2.3 complex): 7.68
coupling between the TRPV4 and the KCa2.3 (TRPV4-KCa2.3 complex): enhanced
In vivo inherent clearance rate [3]: 22.326 ml · ^1min · kg^−1
Half-life obtained after incubation in liver microsomes of human ([3]; human liver microsomes, 37° C., NADPH): 4.23 h
half-life at 0.193 µM ([3]; 37° C., NADPH): 3.35 h
microsomal CLint at 0.193 µM ([3]; human liver microsomes): 5.7 µL/min/mg
In vivo inherent clearance rate [4]: 7.065 ml · ^1min · kg^−1
Half-life in liver microsomes ([4]; mouse liver microsomes): 3.35 h
half-life at 0.193 µM [4]: 4.23 h
microsomal CLint at 0.193 µM ([4]; mouse liver microsomes): 7.1 µL/min/mg
half-life at 0.193 µM [5]: 4 ± 0.5 h
Structure (SMILES): CCN1CCN(Cc2ccc(NC(=O)NCCCCC(=O)Nc3ccc(F)cc3)cc2)CC1 [Example 5, 5-(3-(4-((4-ethylpiperazin-1-yl)methyl)phenyl)ureido)-N-(4-fluorophenyl)pentaneamide]
outflow ability of the intracellular potassium ions (changes of [K+]) [1]: significantly improved
time for which the blood pressure was reduced [2]: 8 h
Mean arterial pressure change value [2]: 38 mmHg
metabolism differences between species [5]: no metabolism differences between species

Fret efficiency value (average value) (TRPV4-KCa2.3 complex): 5.98
coupling between the TRPV4 and the KCa2.3 (TRPV4-KCa2.3 complex): enhanced
Structure (SMILES): O=C(NCCCNC(=O)c1nc(=O)c2ccccc2[nH]1)Nc1ccncc1 [Example 2, 4-oxo-N-(3-(3-(pyridin-4-yl)ureido)propyl)-1,4-dihydroquinazoline-2-carboxamide]

Fret efficiency value (average value) (TRPV4-KCa2.3 complex): 8.15
coupling between the TRPV4 and the KCa2.3 (TRPV4-KCa2.3 complex): enhanced
In vivo inherent clearance rate [3]: 9.43 ml · ^1min · kg^−1
half-life at 0.193 µM ([3]; 37° C., NADPH): 2.44 h
microsomal CLint at 0.193 µM ([3]; human liver microsomes): 9.5 µL/min/mg
In vivo inherent clearance rate [4]: 40.21 ml · ^1min · kg^−1
half-life at 0.193 µM [4]: 2.34 h
microsomal CLint at 0.193 µM ([4]; mouse liver microsomes): 10 µL/min/mg
In vivo inherent clearance rate ([6]; from rat liver microsomes): 15.07 ml · ^1min · kg^−1
half-life at 0.193 µM ([6]; pH 7.4, rat liver microsomes): 2.85 h
microsomal CLint at 0.193 µM ([6]; pH 7.4, rat liver microsomes, read-out: Inherent clearance rate in liver microsomes): 8.4 µL/min/mg
In vivo inherent clearance rate ([7]; from dog liver microsomes): 15.91 ml · ^1min · kg^−1
half-life at 0.193 µM ([7]; pH 7.4, dog liver microsomes): 2.23 h
microsomal CLint at 0.193 µM ([7]; pH 7.4, dog liver microsomes, read-out: Inherent clearance rate in liver microsomes): 11 µL/min/mg
half-life at 0.193 µM [5]: ~2.5 h
Structure (SMILES): CCN1CCN(Cc2ccc(NC(=O)NCCCCC(=O)Nc3ccccc3)cc2)CC1 [Example 4, 5-(3-(4-((4-ethylpiperazin-1-yl)methyl)phenyl)ureido)-N-phenylpentaneamide]
outflow ability of the intracellular potassium ions (changes of [K+]) [1]: significantly improved
time for which the blood pressure was reduced [2]: 1.5 h
Mean arterial pressure change value [2]: 16 mmHg
metabolism differences between species [5]: no metabolism differences between species

Fret efficiency value (average value) (TRPV4-KCa2.3 complex): 6.06
coupling between the TRPV4 and the KCa2.3 (TRPV4-KCa2.3 complex): enhanced
Structure (SMILES): O=C(Cc1ccncc1)NCCCNC(=O)c1nc(=O)c2ccccc2[nH]1 [Example 1, 4-oxo-N-(3-(2-(pyridin-4-yl)acetamido)propyl)-1,4-dihydroquinazoline-2-carboxamide]

Fret efficiency value (average value) (TRPV4-KCa2.3 complex): 5.02
half-life at 0.193 µM ([3]; 37° C., NADPH): 0.813 h
Structure (SMILES): O=C(NCCCNC(=O)C(c1ccccc1)c1ccccc1)c1nc(=O)c2ccccc2[nH]1 [JNC-440, reference compound]
Mean arterial pressure change value [2]: 10 mmHg

Fret efficiency value (average value) (TRPV4-KCa2.3 complex): 5.62
coupling between the TRPV4 and the KCa2.3 (TRPV4-KCa2.3 complex): enhanced
Structure (SMILES): CCN1CCN(Cc2ccc(NC(=O)NCCCNC(=O)c3nc(=O)c4ccccc4[nH]3)cc2)CC1 [Example 3]

Fret efficiency value (average value) (TRPV4-KCa2.3 complex): 7.98
coupling between the TRPV4 and the KCa2.3 (TRPV4-KCa2.3 complex): enhanced
Structure (SMILES): CCN1CCN(Cc2ccc(NC(=O)NCCCCCNC(=O)c3ccc(F)cc3)cc2)CC1 [Example 6]
outflow ability of the intracellular potassium ions (changes of [K+]) [1]: significantly improved
